Assays:
[1] = molecular target: T1, hTGR5 (Homo sapiens, UniProt Q8TDU6); test: TGR5/CRE Luciferase Assay (hTGR5); type: cell-based; conditions: for EC50: HEK 293 cells co-transfected with pCMV tag4b-TGR5h and pCRE TA-Luciferase, overnight incubation; for hTGR5 % trans: percentage of the 10 μM LCA value, HEK 293 cells transfected with hTGR5
T1 construct: expressed in transfected cells; host or cells: HEK293 cells, transiently co-transfected with the pCRE TA-Luciferase reporter
T1 sequence (Q8TDU6 1-330): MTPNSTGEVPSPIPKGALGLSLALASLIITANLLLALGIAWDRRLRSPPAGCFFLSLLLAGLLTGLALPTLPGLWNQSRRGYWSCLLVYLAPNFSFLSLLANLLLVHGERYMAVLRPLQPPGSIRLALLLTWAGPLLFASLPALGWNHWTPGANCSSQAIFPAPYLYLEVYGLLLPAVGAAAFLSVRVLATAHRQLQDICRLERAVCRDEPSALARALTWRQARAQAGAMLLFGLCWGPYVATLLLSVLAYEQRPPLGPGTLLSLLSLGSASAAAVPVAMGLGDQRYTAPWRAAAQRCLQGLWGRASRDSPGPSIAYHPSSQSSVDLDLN
Method in brief: (§1)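 cAMP-dependent luciferase luminescence was measured after overnight compound exposure (duplicate concentration series) and fitted to a four-parameter logistic equation. Cells: HEK293 transiently co-expressing hTGR5 or mTGR5 with a CRE reporter; lithocholic acid at 10 μM was the reference agonist.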

[2] = molecular target: T2, mTGR5 (Mus musculus, UniProt Q80SS6); test: TGR5/CRE Luciferase Assay (mTGR5); type: cell-based; conditions: for EC50: HEK 293 cells co-transfected with pCMV AC6-TGR5m and pCRE TA-Luciferase, overnight incubation; for mTGR5 % trans: percentage of the 10 μM LCA value, HEK 293 cells transfected with mTGR5
T2 construct: expressed in transfected cells; host or cells: HEK293 cells, transiently co-transfected with the pCRE TA-Luciferase reporter
T2 sequence (Q80SS6 1-329): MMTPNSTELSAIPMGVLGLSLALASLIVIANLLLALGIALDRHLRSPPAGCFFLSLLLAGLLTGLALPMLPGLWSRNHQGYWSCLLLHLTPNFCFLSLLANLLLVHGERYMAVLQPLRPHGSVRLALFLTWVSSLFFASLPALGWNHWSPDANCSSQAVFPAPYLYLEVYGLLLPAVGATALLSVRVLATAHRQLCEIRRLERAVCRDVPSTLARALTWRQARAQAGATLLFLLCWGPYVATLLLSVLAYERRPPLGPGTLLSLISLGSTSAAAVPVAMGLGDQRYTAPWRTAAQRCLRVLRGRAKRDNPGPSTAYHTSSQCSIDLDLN
Method in brief: as §1

CC1=C(C(=O)OCc2ccc(C)cc2)C(c2ccc(Cl)cc2)CC(=O)N1C (centres unmarked) [Example 79, p-tolylmethyl 4-(4-chlorophenyl)-1,6-dimethyl-2-oxo-3,4-dihydropyridine-5-carboxylate]
EC50 [1]: 700 nM | hTGR5 % trans [1]: 80% | EC50 [2]: 700 nM | mTGR5 % trans [2]: 73%

CC1=C(C(=O)OCc2ccccc2)C(c2ccc(C)cc2)CC(=O)N1 (centres unmarked) [Compound 3, 2-Methyl-6-oxo-4-p-tolyl-1,4,5,6-tetrahydro-pyridine-3-carboxylic acid benzyl ester]
EC50 [1]: 7400 nM | hTGR5 % trans [1]: 65% | EC50 [2]: 10400 nM | mTGR5 % trans [2]: 45%

CC1=C(C(=O)OCc2ccc(OCCCCS(=O)(=O)O)cc2)[C@H](c2ccc(Cl)cc2)CC(=O)N1C[C@H]1CCCO1 [Example 169, Ammonium; 4-[4-[[(4S)-4-(4-chlorophenyl)-6-methyl-2-oxo-1-[[(2R)-tetrahydrofuran-2-yl]methyl]-3,4-dihydropyridine-5-carbonyl]oxymethyl]phenoxy]butane-1-sulfonate]
EC50 [1]: 30 nM | hTGR5 % trans [1]: 103% | EC50 [2]: 9 nM | mTGR5 % trans [2]: 103%

CC1=C(C(=O)OCc2ccccc2)C(c2ccc(Cl)cc2)CC(=O)N1CC#N (centres unmarked) [Compound 63, Benzyl 4-(4-chlorophenyl)-1-(cyanomethyl)-6-methyl-2-oxo-3,4-dihydropyridine-5-carboxylate]
EC50 [1]: 2200 nM | hTGR5 % trans [1]: 50% | EC50 [2]: 2000 nM | mTGR5 % trans [2]: 57%

CC1=C(C(=O)OCc2ccccc2)C(c2ccc(Cl)cc2)CC(=O)N1CC1CN(C)C1 (centres unmarked) [Compound 47, Benzyl 4-(4-chlorophenyl)-6-methyl-1-[(1-methylazetidin-3-yl)methyl]-2-oxo-3,4-dihydropyridine-5-carboxylate]
EC50 [1]: 6600 nM | hTGR5 % trans [1]: 22% | mTGR5 % trans [2]: 0%

CC1=C(C(=O)OCc2ccccc2)C(c2ccc(F)cc2)CC(=O)N1 (centres unmarked) [Compound 13, 4-(4-Fluoro-phenyl)-2-methyl-6-oxo-1,4,5,6-tetrahydro-pyridine-3-carboxylic acid benzyl ester]
EC50 [1]: 2600 nM | hTGR5 % trans [1]: 40% | EC50 [2]: 4200 nM | mTGR5 % trans [2]: 37%

COCCN1C(=O)CC(c2ccc(Cl)cc2)C(C(=O)OCc2ccc(OC)cc2)=C1C (centres unmarked) [Example 104, (4-methoxyphenyl)methyl 4-(4-chlorophenyl)-1-(2-methoxyethyl)-6-methyl-2-oxo-3,4-dihydropyridine-5-carboxylate]
EC50 [1]: 200 nM | hTGR5 % trans [1]: 71% | EC50 [2]: 200 nM | mTGR5 % trans [2]: 85%

COc1ccccc1COC(=O)C1=C(C)N(C[C@@H]2CCCO2)C(=O)C[C@H]1c1ccc(Cl)nc1 [Example 163, (2-Methoxyphenyl)methyl-(4S)-4-(6-chloro-3-pyridyl)-6-methyl-2-oxo-1-[[(2S)-tetra hydrofuran-2-yl]methyl]-3,4-dihydropyridine-5-carboxylate]
EC50 [1]: 17 nM | hTGR5 % trans [1]: 105% | mTGR5 % trans [2]: 102%

COc1ccccc1COC(=O)C1=C(C)N(C[C@H]2CCCO2)C(=O)C[C@H]1c1ccc2nsnc2c1 (racemic) [Example 152, (2-Methoxyphenyl)methyl (4S)-4-(2,1,3-benzothiadiazol-5-yl)-6-methyl-2-oxo-1-[[(2R)-tetrahydrofuran-2-yl]methyl]-3,4-dihydropyridine-5-carboxylate and (2-methoxyphenyl)methyl (4R)-4-(2,1,3-benzothiadiazol-5-yl)-6-methyl-2-oxo-1-[[(2S)-tetrahydrofuran-2-yl]methyl]-3,4-dihydropyridine-5-carboxylate]
EC50 [1]: 30 nM | hTGR5 % trans [1]: 106% | EC50 [2]: 48 nM | mTGR5 % trans [2]: 66%

CC1=C(C(=O)OCc2ccccn2)[C@H](c2ccc(Cl)cc2)CC(=O)N1C[C@H]1CCCO1 (racemic) [Example 145, 2-pyridylmethyl (4S)-4-(4-chlorophenyl)-6-methyl-2-oxo-1-[[(2R)-tetrahydrofuran-2-yl]methyl]-3,4-dihydropyridine-5-carboxylate and 2-pyridylmethyl (4R)-4-(4-chlorophenyl)-6-methyl-2-oxo-1-[[(2S)-tetrahydrofuran-2-yl]methyl]-3,4-dihydropyridine-5-carboxylate]
EC50 [1]: 1000 nM | hTGR5 % trans [1]: 72% | EC50 [2]: 2500 nM | mTGR5 % trans [2]: 74%

CC1=C(C(=O)OCc2ccccc2)C(c2ccccc2)CC(=O)N1 (centres unmarked) [Compound 14, 2-Methyl-6-oxo-4-phenyl-1,4,5,6-tetrahydro-pyridine-3-carboxylic acid benzyl ester]
EC50 [1]: 7600 nM | hTGR5 % trans [1]: 30% | EC50 [2]: 10300 nM | mTGR5 % trans [2]: 18%

C#CCN1C(=O)CC(c2ccc(Cl)cc2)C(C(=O)OCc2ccccc2)=C1C (centres unmarked) [Compound 40, Benzyl 4-(4-chlorophenyl)-6-methyl-2-oxo-1-prop-2-ynyl-3,4-dihydropyridine-5-carboxylate]
EC50 [1]: 900 nM | hTGR5 % trans [1]: 81% | EC50 [2]: 900 nM | mTGR5 % trans [2]: 76%

COc1ccccc1C1CC(=O)NC(C)=C1C(=O)OCc1ccccc1 (centres unmarked) [Compound 4, 4-(2-Methoxy-phenyl)-2-methyl-6-oxo-1,4,5,6-tetrahydro-pyridine-3-carboxylic acid benzyl ester]
EC50 [1]: 10000 nM | hTGR5 % trans [1]: 17% | EC50 [2]: 8500 nM | mTGR5 % trans [2]: 18%

COc1ccccc1COC(=O)C1=C(C)N(Cc2ccco2)C(=O)CC1c1ccc(Cl)cc1 (centres unmarked) [Compound 66]
EC50 [1]: 200 nM | hTGR5 % trans [1]: 62% | EC50 [2]: 100 nM | mTGR5 % trans [2]: 78%

CC1=C(C(=O)OCc2ccccc2)C(c2ccc(Cl)cc2)CC(=O)N1CC(N)=O (centres unmarked) [Compound 60, Benzyl 1-(2-amino-2-oxo-ethyl)-4-(4-chlorophenyl)-6-methyl-2-oxo-3,4-dihydropyridine-5-carboxylate]
EC50 [1]: 13500 nM | hTGR5 % trans [1]: 42% | EC50 [2]: 14400 nM | mTGR5 % trans [2]: 32%

CC1=C(C(=O)OCc2ccccc2)C(c2ccc(Cl)cc2)CC(=O)N1Cc1ccccc1 (centres unmarked) [Compound 41, Benzyl 1-benzyl-4-(4-chlorophenyl)-6-methyl-2-oxo-3,4-dihydropyridine-5-carboxylate]
EC50 [1]: 1300 nM | hTGR5 % trans [1]: 55% | EC50 [2]: 1200 nM | mTGR5 % trans [2]: 55%

COCCOc1ccc(COC(=O)C2=C(C)N(C[C@@H]3CCCO3)C(=O)C[C@H]2c2ccc(Cl)cc2)cc1 (racemic) [Example 147, [4-(2-methoxyethoxy)phenyl]methyl (4S)-4-(4-chlorophenyl)-6-methyl-2-oxo-1-[[(2S)-tetrahydrofuran-2-yl]methyl]-3,4-dihydropyridine-5-carboxylate and [4-(2-methoxyethoxy)phenyl]methyl (4R)-4-(4-chlorophenyl)-6-methyl-2-oxo-1-[[(2R)-tetrahydrofuran-2-yl]methyl]-3,4-dihydropyridine-5-carboxylate]
EC50 [1]: 190 nM | hTGR5 % trans [1]: 77% | EC50 [2]: 450 nM | mTGR5 % trans [2]: 112%

CC1=C(C(=O)OCc2ccccc2)C(c2ccc(Cl)cc2)CC(=O)N1CC(=O)OC(C)(C)C (centres unmarked) [Compound 58, Benzyl 1-(2-tert-butoxy-2-oxo-ethyl)-4-(4-chlorophenyl)-6-methyl-2-oxo-3,4-dihydropyridine-5-carboxylate]
EC50 [1]: 1340 nM | hTGR5 % trans [1]: 50% | EC50 [2]: 420 nM | mTGR5 % trans [2]: 70%

COCCN1C(=O)CC(c2ccc(Cl)cc2)C(C(=O)OCc2ccccc2C#N)=C1C (centres unmarked) [Example 93, (2-cyanophenyl)methyl 4-(4-chlorophenyl)-1-(2-methoxyethyl)-6-methyl-2-oxo-3,4-dihydropyridine-5-carboxylate]
EC50 [1]: 600 nM | hTGR5 % trans [1]: 58% | EC50 [2]: 800 nM | mTGR5 % trans [2]: 53%

COc1ccccc1COC(=O)C1=C(C)N(C[C@H]2CCCO2)C(=O)C[C@H]1c1ccc(Cl)c(Cl)c1 (racemic) [Example 149, (2-methoxyphenyl)methyl (4S)-4-(3,4-dichlorophenyl)-6-methyl-2-oxo-1-[[(2R)-tetrahydrofuran-2-yl]methyl]-3,4-dihydropyridine-5-carboxylate and (2-methoxyphenyl)methyl (4R)-4-(3,4-dichlorophenyl)-6-methyl-2-oxo-1-[[(2S)-tetrahydrofuran-2-yl]methyl]-3,4-dihydropyridine-5-carboxylate]
EC50 [1]: 20 nM | hTGR5 % trans [1]: 91% | EC50 [2]: 70 nM | mTGR5 % trans [2]: 89%

COCCN1C(=O)CC(c2ccc(Cl)cc2)C(C(=O)OCc2ccccc2C)=C1C (centres unmarked) [Example 98, o-tolylmethyl 4-(4-chlorophenyl)-1-(2-methoxyethyl)-6-methyl-2-oxo-3,4-dihydropyridine-5-carboxylate]
EC50 [1]: 300 nM | EC50 [2]: 500 nM

Source: patent publication US9932309B2, “2-oxo-3,4-dihydropyridine-5-carboxylates and their use” (UNIVERSITE DE LILLE 2 DROIT ET SANTE, priority 2014, dated 2018)
